Data published in publication PMC4481117 (Molecular Pain, 2015).

Tests used:
[1] = system: αMI-domain; test: αMI-domain binding to cellulose-bound peptide libraries (SPOT, autoradiography, densitometry); conditions: for Densitometry, % (αMI-domain binding): 9-mer peptides, 3-residue offset, N-acetylated, cellulose-bound via (β-Ala)2, 10 μg/ml 125I-labeled αMI-domain (active form), TBS 1 mM MgCl2, percentage of binding to peptide #1 (100 %); for αMI-domain binding (in words): cellulose-bound 9-mer libraries, 125I-labeled αMI-domain
Experimental: Fig. 1 Screening of the peptide library spanning the sequence of dynorphin AB for αMI-domain binding. a, Amino acid sequence of dynorphin AB (residues 1–32). b, Cellulose membrane with the assembled peptide library consisting of 9-mer peptides with three-residue offset was incubated with ^125I-labeled αMI-domain and subjected to autoradiography followed by densitometry. The αMI-domain binding was observed as dark spots. Spot #10 contains only the β-Ala spacer. The αMI-domain binding was expressed as a percentage of binding to peptide #1, which was assigned a value 100 % and is shown as the numbers on the right of each sequence. The peptide energies that serve as a measure of probability each peptide can interact with the αMI-domain were calculated as described TEXT PRINTED IN THE PICTURE: (B) 1 ([…]): Densitometry, %: 100; Energy, J/mole: -13824 | (B) 2 ([…]): Densitometry, %: 100; Energy, J/mole: -17197 | (B) 3 ([…]): Densitometry, %: 75; Energy, J/mole: -9119 | (B) 4 ([…]): Densitometry, %: 60; Energy, J/mole: -650 | (B) 5 ([…]): Densitometry, %: 40; Energy, J/mole: -2880 | (B) 6 ([…]): Densitometry, %: 90; Energy, J/mole: -5355 | (B) 7 ([…]): Densitometry, %: 90; Energy, J/mole: -12541 | (B) 8 ([…]): Densitometry, %: 100; Energy, J/mole: -12344 | (B) 9 ([…]): Densitometry, %: 100; Energy, J/mole: -9738 | (B) 10 (β-alanine control): Densitometry, %: 0 | (B) Control peptide ([…]): Energy, J/mole: 11107
Peptide libraries derived from dynorphin AB assembled on cellulose membrane supports were prepared by parallel spot synthesis as previously described. Peptides were COOH-terminally attached to cellulose via a (β-Ala)2 spacer and were acetylated N-terminally. The membrane-bound peptides were tested for their ability to bind the αMI-domain according to a previously described procedure. In brief, the membrane was blocked with 1 % BSA and then incubated with 10 μg/ml of ^125I-labeled αMI-domain in TBS containing 1 mM MgCl2. After washing, the membrane was dried and the αMI-domain binding was visualized by autoradiography.
Additional file 1: Figure S1. Identification of residues in dynorphin A critical for α MI-domain binding. The dynorphin AB-based substitutional peptide libraries with single, double or triple mutations of basic residues were prepared by SPOT synthesis as described in Experimental Procedures. Mutated amino acid residues are shown in red. The membranes with synthesized peptide libraries were incubated with ^125I-labeled α MI-domain and subjected to autoradiography. The α MI-domain binding was analyzed by densitometry and expressed in arbitrary units with the strongest binding to wild-type peptides assigning a value of 4+. The peptides that partially lost their ability to bind the α MI-domain were grouped according to their activity and marked as 3+, 2+ and +. The peptides that lost their ability to bind the α MI-domain are marked with “NB “.

[2] = biological target: T1, Mac-1 (Mac-1-expressing HEK293 cells) (Homo sapiens, UniProt P05107+P11215); test: Adhesion of Mac-1-HEK293 cells to immobilized peptide; format: cell-based; conditions: coated wells, calcein-labeled cells, 30 min at 37 °C
T1 construct: expressed in transfected cells
Experimental: (§1) For testing the role of glucosaminoglycans in cell adhesion, dynorphin A-coated wells were preincubated with 100 μl of 10 μg/ml of chondroitin sulfate A, chondroitin sulfate B and heparin. Aliquots (5x10^4cells) were added to the wells coated with 2 μM dynorphin A and adhesion was performed as described in A. Adhesion in the absence of Mac-1 inhibitors and glucosaminoglycans was assigned a value of 100 %. The data shown are the means ± S.E. from four separate experiments each with triplicate measurements. d , microtiter plate wells were coated with different concentrations of dynorphin B and adhesion of Mac-1-expressing and wild-type HEK293 cells was determined as described in A. The data shown are means of triplicate determinations, and error bars represent S.E. The figure is representative of 5 experiments. e. calcein-labeled Mac-1-HEK293 cells were preincubated without or with 10 μg/ml of mAb 44a and heparin, added to the wells coated with 20 μM of dynorphin B and adhesion was performed as described in A. Adhesion in the absence of inhibitors was assigned a value of 100 %.
(§2) Adhesion assays were performed essentially as described previously. […] Cells were labeled with 10 μM calcein for 30 min at 37 °C and washed twice with Hanks’ Balanced salt solution (HBSS) containing 0.1 % BSA. Aliquots (100 μl) of labeled cells (5x10^5/ml) were added to each well and allowed to adhere for 30 min at 37 °C. The non-adherent cells were removed by two washes with PBS. Fluorescence was measured in a CytoFluorII fluorescence plate reader (Perceptive Biosystems, Framingham, MA). In inhibition experiments, cells were mixed with different concentrations of peptides, NIF or mAbs for 20 min at 22 °C before they were added to the wells coated with adhesive substrates. In a separate set of experiments, after coating plates with dynorphins and post-coating with 1 % PVP, plates were incubated with 100 μl of 10 μg/ml chondroitin sulfate A, chondroitin sulfate B, or heparin for 20 min at 22 °C. After aspirating the solution, labeled cells were added and cell adhesion was analyzed as above.

[3] = system: Mac-1 (Mac-1-HEK293 cells); test: Inhibition of adhesion of Mac-1-HEK293 cells to fibrinogen by soluble peptides; format: cell-based, Human; conditions: soluble peptide, 2.5 μg/mL fibrinogen coating
Experimental: Fig. 4 Effect of soluble Dyn A on Mac-1-mediated cell adhesion to fibrinogen. a (left ordinate), calcein-labeled Mac-1-HEK293 cells were preincubated with different concentrations of dynorphin A (black bar), dynorphin B (open bar) or control peptide (gray bar) for […] at 22 °C and added to the wells of microtiter plates coated with 2.5 μg/mL fibrinogen. Cells were allowed to adhere for 30 minutes at 37 °C before removing nonadherent cells. […] Data are expressed as a percentage of total cell fluorescence
as §2, with “In a separate set of experiments, after coating plates with dynorphins and post-coating with 1 % PVP, plates were incubated with 100 μl of 10 μg/ml chondroitin sulfate A, chondroitin sulfate B, or heparin for 20 min at 22 °C.” left out

[4] = system: Mac-1 (Mac-1-HEK293 cells); test: Inhibition of adhesion of Mac-1-HEK293 cells to Dyn A; format: cell-based, Human; conditions: 2 μM Dyn A coating; for Inhibition of adhesion to Dyn A in combination with NIF (in words): glycosaminoglycan 10 μg/ml with NIF; for Inhibition of adhesion to Dyn A (in words): wells preincubated with glycosaminoglycan 10 μg/ml, 20 min, alone
Experimental: as §1, §2

[5] = system: IC-21 macrophages; test: Phagocytosis of Dyn A-coated latex beads by IC-21 macrophages; format: cell-based, murine; conditions: heparin 20 μg/ml, naloxone 10 μM, rat IgG2b isotype control
Experimental: Fig. 8 Effect of Dyn A on phagocytosis of latex beads. a, Fluorescent latex beads (1x10^9/ml) were preincubated with Dyn A (50 μg/ml) for 40 min at 37 °C. Soluble peptide was removed from the beads by high-speed centrifugation. Peptide-coated beads were incubated with adherent IC-21 macrophages for 30 min at 37 °C. Nonphagocytosed beads were removed from cells by washing with PBS. […] Rat IgG2b was used as an isotype control for anti-αM mAb M1/70. Phagocytosis was quantified for five random fields per well using a 20x objective. Phagocytosis of Dyn A-treated beads was assigned as 100 %.
A suspension of fluorescent […] latex beads (1x10^9/ml) (FluoSpheres sulfate microspheres, Life Technologies, Carlsbad, CA) was incubated with 50 μg/ml of Dyn A for 40 min at 37 °C, then unbound peptide was removed by centrifugation. IC-21 murine macrophages (5 × 10^5/ml) were adhered on the cover glass for 30 min and 3 × 10^6 of peptide-coated beads were added to adherent IC-21 cells. After incubating for 30 minutes at 37 °C, nonphagocytosed beads were separated from macrophages by washing with 3x1 ml PBS and phagocytosed beads were counted in the presence of trypan blue. […] The ratio of beads per macrophage was quantified by taking photographs of five fields for each well using a Leica DM4000 B microscope (Leica Microsystems, Buffalo Grove, IL) with a 20 × objective.

[6] = system: Mac-1; test: Mac-1 mediated cell adhesion, effect of naloxone; format: cell-based; conditions: control experiments, not shown
[7] = system: U937 monocytic cells; test: Chemotaxis migration assay of U937 cells to Dyn A agarose gel; format: cell-based, human
Experimental: Fig. 7 Chemotactic response of U937 cells to Dyn A. a, schematic representation of the experimental format. U937 cells (5x10^4) were placed in the center of the coverslip between two agar gels, one containing Dyn A and control gel without Dyn A. After 2 h at 37 °C, a series of photographs was taken in the direction of migration at 1-mm intervals to count the number of migrating cells. b , representative images after 2 h of migration show the cells within the starting point (marked with a cross; right panels) and at the border of the Dyn A-containing agar drop (left panels). […] Two bottom panels show the experimental condition with no Dyn A gradient. c, quantification of U937 cells migrated from the initial point after 2 h based on the results shown in A (right panel). Migration of control untreated U937 cells that completely migrated from the initial point of cell placement was assigned a value of 100 %. In contrast, there was no cell migration without a Dyn A gradient (0 %). […] A representative experiment is shown. d, distribution of U937 cells between two gels: Dyn A-containing (on the left) and without Dyn A (on the right). “0” on abscissa corresponds to the initial point where cells were loaded and the numbers show the distance that cells migrated in both directions from the starting point. All cells in each of 10 consecutive fields towards the Dyn A-containing and empty gels were counted and plotted as a distance from the starting point
Chemotaxis assays using U937 monocytic cells were performed on 22 × 22 mm cover slips. 1 % agarose (Life Technologies, Carlsbad, CA) was dissolved in HBSS by heating. After cooling, the agarose solution was mixed with Dyn A to obtain a final concentration of 10 μM. A 10 μl drop of warm agarose solution containing Dyn A was placed at one corner of the cover glass at ~1.5 mm from the edge. A control agarose drop was placed diagonally at the opposite corner of the cover glass. Agarose was allowed to solidify for 5 min, and the cover glasses were placed into wells of the 6-well plate filled with 5 ml of RPMI 1640 + 10 % FBS. A 10-μl aliquot of U937 cells (5x10^4) was loaded in the center of the cover glass and the plate was incubated for 2 h at 37 °C in a humidified atmosphere containing 5 % CO2. In this experimental format, the cells sediment approximately 5 min after loading, forming an ~4 mm circle, and begin to migrate towards the Dyn A-containing agarose drop. […] The photographs were taken at 1-mm intervals in the direction of cell migration towards the dynorphin-containing or control agarose drops without dynorphin A. The number of cells at the starting point and in each of 10 consecutive fields towards the dynorphin-containing and empty gels were counted and plotted as a distance from the starting point.

Row | Compound | Densitometry, % (αMI-domain binding) [1] [%] | αMI-domain binding (in words) [1] | other results
1 | PKLKWDNQK | 60 | weakened their αMI-domain binding activity | –
2 | RYGGFLRRQ | 90 | – | –
3 | NQKRYGGFL | 90 | – | –
4 | DIDPKLKWD [control peptide, purchased from AnaSpec; also mutant in substitutional library] | – | – | Adhesion of Mac-1-HEK293 cells (in words) [2]: failed to support adhesion; Inhibition of adhesion to fibrinogen (in words) [3]: only slightly inhibitory
5 | chondroitin sulfate B | – | – | Inhibition of adhesion to Dyn A in combination with NIF (in words) [4]: not exert a statistically significant inhibitory effect; Inhibition of adhesion to Dyn A (in words) [4]: not exert a statistically significant inhibitory effect
6 | chondroitin sulfate A | – | – | Inhibition of adhesion to Dyn A in combination with NIF (in words) [4]: not exert a statistically significant inhibitory effect; Inhibition of adhesion to Dyn A (in words) [4]: not exert a statistically significant inhibitory effect
7 | FLRRIRPKL | 100 | highest affinities | –
8 | GFLRRQFKV | 100 | – | –
9 | YGGFLRRIR | 100 | highest affinities | –
10 | heparin | – | – | Effect on Dyn A-mediated phagocytosis (in words) [5]: did not decrease the number of phagocytosed beads; Inhibition of adhesion to Dyn A (in words) [4]: slight inhibition
11 | C=CCN1CC[C@]23c4c5ccc(O)c4O[C@H]2C(=O)CC[C@@]3(O)[C@H]1C5 [naloxone] | – | – | Effect on Dyn A-mediated phagocytosis (in words) [5]: did not decrease the number of phagocytosed beads; Effect on Mac-1 mediated cell adhesion [6]: does not affect Mac-1 mediated cell adhesion; Mean distance travelled by inhibitor-treated cells ([7]; Dyn A gradient, 2 h, mAb 44a 20 μg/ml or naloxone 10 μM): ~ 5 mm; Migration from initial point blocked ([7]; mAb 44a 20 μg/ml or naloxone 10 μM, 30 min preincubation, 2 h at 37 °C, representative experiment): ~ 20%; Arrival of inhibitor-treated cells at Dyn A-containing drop ([7]; mAb 44a 20 μg/ml or naloxone 10 μM, 2 h): only a few cells arrived; Cells remaining at the start ([7]; naloxone 10 μM, Dyn A gradient, 2 h): ~ 20%
12 | RRQFKVVGG | 100 | – | –
13 | RIRPKLKWD | 75 | weakened their αMI-domain binding activity | –
14 | KWDNQKRYG | 40 | weakened their αMI-domain binding activity | –
